Patent publication US20210069199A1, “METHODS OF TREATING TRANSPLANT REJECTION” (priority 2015, published 2021)

Key:
[1] = test system: IL-2 induced STATS phosphorylation; assay: IL-2 induced STAT5 phosphorylation in human CD4+ T-cells; format: cell-based; details: 2.5 μM
Description: (§1) This offers a platform to reduce Th17 development, while promoting Treg populations.

CSF1R = CSF1R (Homo sapiens, UniProt P07333); details: cited from earlier work
JAK3 = molecular target: T1, JAK3 (Homo sapiens, UniProt P52333); details: cited from earlier work
T1 sequence (P52333 1-1124): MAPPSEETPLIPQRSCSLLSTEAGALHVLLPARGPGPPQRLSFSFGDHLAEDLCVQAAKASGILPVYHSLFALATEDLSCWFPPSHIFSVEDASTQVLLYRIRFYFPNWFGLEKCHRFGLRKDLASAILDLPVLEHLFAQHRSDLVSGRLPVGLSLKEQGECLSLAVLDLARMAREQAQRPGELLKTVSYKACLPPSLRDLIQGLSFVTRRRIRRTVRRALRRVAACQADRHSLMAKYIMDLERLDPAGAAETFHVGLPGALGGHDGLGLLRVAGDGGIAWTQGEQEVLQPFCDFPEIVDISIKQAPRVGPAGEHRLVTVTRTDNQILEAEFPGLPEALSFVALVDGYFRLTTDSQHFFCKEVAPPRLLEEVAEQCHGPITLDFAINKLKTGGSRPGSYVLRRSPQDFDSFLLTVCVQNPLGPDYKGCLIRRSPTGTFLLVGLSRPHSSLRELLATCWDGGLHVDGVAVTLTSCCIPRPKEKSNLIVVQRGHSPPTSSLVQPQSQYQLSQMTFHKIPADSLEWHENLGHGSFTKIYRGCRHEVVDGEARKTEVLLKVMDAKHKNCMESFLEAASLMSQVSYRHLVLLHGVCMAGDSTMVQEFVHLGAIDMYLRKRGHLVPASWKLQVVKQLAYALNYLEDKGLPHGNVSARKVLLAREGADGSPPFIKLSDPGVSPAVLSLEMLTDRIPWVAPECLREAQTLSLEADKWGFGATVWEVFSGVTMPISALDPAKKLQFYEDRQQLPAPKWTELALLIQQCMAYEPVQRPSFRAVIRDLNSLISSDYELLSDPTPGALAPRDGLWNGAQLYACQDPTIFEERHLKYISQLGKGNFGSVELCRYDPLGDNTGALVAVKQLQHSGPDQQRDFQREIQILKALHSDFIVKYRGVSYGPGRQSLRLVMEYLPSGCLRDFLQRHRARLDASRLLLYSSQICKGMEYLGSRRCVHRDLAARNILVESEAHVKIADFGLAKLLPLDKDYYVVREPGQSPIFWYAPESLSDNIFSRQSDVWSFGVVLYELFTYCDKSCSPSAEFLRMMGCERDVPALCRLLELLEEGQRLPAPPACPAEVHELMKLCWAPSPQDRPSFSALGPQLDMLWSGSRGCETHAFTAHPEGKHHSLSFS

myelofibrosis patients = details: unlike JAK1/JAK2 inhibitors; cited from earlier work
human T-cells = assay: allogeneic mixed leukocyte reaction, T-cell proliferation; format: cell-based; details: 2.5 μM, after 5 days of culture, DC:T-cell ratio 1:30; control 100%; P<0.0001
Description: as §1

GVHD in recipient mice = assay: murine model of MHC-disparate allogeneic hematopoietic cell transplantation (GVHD); format: in vivo; details: 100 mg/kg twice a day by oral gavage for 4 weeks beginning on the day of MHC-disparate allo-HCT
STAT3 activity by IL-6 = STAT3 activity by IL-6 in human CD4+ T-cells; format: cell-based; details: 2.5 μM
Description: as §1

[2] = test system: human skin graft rejection by allogeneic human PBMC; assay: human skin/NSG mouse xenograft model of solid organ graft rejection; format: in vivo
Description: The inventors then evaluated whether JAK2 inhibition could prevent solid organ graft rejection, using a human skin/NSG mouse xenograft model. A 1×1 cm split-thickness human skin graft was transplanted onto the animal dorsally, followed by intraperitoneal injection of 5×10^6 allogeneic peripheral blood mononuclear cells (PBMC) 30 days after surgery.

IRAK1 = IRAK1 (Homo sapiens, UniProt P51617); details: cited from earlier work
IRAK1, sequence (P51617 whole entry, species assumed): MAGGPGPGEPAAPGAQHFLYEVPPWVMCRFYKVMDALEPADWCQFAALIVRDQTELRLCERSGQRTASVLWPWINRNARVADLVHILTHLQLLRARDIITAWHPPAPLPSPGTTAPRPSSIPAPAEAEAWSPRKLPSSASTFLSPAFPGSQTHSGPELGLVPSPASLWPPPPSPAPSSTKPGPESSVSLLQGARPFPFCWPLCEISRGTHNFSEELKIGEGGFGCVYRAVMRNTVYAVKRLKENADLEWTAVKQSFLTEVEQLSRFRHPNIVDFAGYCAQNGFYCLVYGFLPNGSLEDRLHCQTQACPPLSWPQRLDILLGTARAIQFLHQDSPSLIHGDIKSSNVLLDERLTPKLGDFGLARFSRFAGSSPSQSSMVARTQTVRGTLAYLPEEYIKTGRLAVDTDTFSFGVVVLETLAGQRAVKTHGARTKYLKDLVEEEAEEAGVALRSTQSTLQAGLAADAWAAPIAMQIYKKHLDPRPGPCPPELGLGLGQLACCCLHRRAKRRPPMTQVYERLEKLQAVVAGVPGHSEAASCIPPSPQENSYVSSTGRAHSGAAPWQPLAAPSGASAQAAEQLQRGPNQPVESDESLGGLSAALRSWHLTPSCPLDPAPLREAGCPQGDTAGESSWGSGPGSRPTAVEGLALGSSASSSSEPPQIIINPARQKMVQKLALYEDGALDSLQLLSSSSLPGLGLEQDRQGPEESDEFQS

iTregs = assay: suppressive potency of iTregs generated with allogeneic DCs in the presence of drug; format: cell-based, human; details: iTregs generated with allogeneic DCs for 5 days with drug, then cultured with self T-cell responders and fresh DCs without drug
Description: as §1

CSF1R, sequence (P07333 20-972, species assumed): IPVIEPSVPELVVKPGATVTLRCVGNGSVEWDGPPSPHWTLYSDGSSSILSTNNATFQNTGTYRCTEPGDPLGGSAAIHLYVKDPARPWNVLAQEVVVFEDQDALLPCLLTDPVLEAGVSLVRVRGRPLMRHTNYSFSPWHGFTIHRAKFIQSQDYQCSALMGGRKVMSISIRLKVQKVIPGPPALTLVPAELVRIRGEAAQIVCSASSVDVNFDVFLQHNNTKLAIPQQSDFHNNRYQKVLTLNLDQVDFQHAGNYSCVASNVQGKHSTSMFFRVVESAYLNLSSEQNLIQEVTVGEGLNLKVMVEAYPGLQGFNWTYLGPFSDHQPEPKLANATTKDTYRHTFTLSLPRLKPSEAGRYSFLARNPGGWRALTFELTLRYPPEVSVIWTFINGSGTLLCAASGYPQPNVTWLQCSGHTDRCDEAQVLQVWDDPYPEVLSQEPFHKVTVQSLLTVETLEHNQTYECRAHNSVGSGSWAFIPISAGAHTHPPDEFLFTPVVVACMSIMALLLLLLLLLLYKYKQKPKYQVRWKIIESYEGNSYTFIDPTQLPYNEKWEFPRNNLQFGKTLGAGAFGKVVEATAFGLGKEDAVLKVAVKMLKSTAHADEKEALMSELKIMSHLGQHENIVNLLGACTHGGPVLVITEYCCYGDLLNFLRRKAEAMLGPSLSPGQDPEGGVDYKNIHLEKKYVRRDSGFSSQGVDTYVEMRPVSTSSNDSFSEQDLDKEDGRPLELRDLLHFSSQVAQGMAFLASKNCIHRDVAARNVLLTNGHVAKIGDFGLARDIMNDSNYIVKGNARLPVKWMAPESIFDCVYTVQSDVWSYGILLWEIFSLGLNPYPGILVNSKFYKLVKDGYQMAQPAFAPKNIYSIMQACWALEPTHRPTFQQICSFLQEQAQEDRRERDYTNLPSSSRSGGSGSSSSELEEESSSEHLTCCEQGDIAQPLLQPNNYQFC

## C1=C/COCc2cc(ccc2OCCN2CCCC2)Nc2nccc(n2)-c2cccc(c2)COC/1 [pacritinib, 11-(2-Pyrrolidinl-yl-ethoxy)-14,19-dioxa-5,7,26-triazatetracyclo[19.3.1.1^2,6.1^8,12] heptacosa-1(25),2(26),3,5,8,10,12(27),16,21,23-decaene]
[1]
  IL-2 induced STATS phosphorylation: permitting IL-2 induced STATS phosphorylation
CSF1R
  suppressive activity toward CSF1R: has suppressive activity toward JAK3, CSF1R
JAK3
  suppressive activity toward JAK3: has suppressive activity toward JAK3
Myelofibrosis patients
  myelosuppression: does not induce myelosuppression
  risk for opportunistic infections: does not induce myelosuppression or increase risk for opportunistic infections
Human T-cells
  Mean proliferation (T-cell): 23.7%
GVHD in recipient mice
  GVHD in recipient mice: significantly reducing GVHD
STAT3 activity by IL-6
  STAT3 activity by IL-6: eliminated STAT3 activity by IL-6
[2]; 100 mg/kg twice a day oral gavage for 15 days from PBMC injection, vehicle 0%
  Day 60 survival (graft): 33.3%
[2]; 100 mg/kg twice a day oral gavage for 15 days from PBMC injection, vehicle 32.5 days, P=0.0011
  Median graft survival: 51 days
[2]; skin grafts at day +21, before onset of graft rejection
  lymphocytic infiltration of skin graft (H&E, CD3 IHC): reduces lymphocytic infiltration of the tissue
IRAK1
  suppressive activity toward IRAK1: has suppressive activity toward JAK3, CSF1R, and IRAK1
iTregs
  suppressive potency of treated iTregs versus DMSO-treated iTregs: similar
